Drawing on ChEMBL document CHEMBL6121023, “Discovery of proteolytically stable monocyte locomotion inhibitory factor peptide through systematic structural optimization” (Eur J Med Chem, 2025), this text covers Activity, viability and Stability for two molecules.

The source made the active and inactive calls. The rule behind the calls is not given here. Residues, ends and D or L forms follow the SMILES beside them. *: point of attachment. Propanoyl(3-(MeO(CH2CH2O)2)) = COCCOCCOCCC(=O)*

Series [1] concerns RAW264.7. The experiment in a line: Antiinflammatory activity in LPS-induced mouse RAW264.7 cells assessed as effect on TNF-alpha level at 1 microg/ml preincubated with compound for 24 hrs followed by LPS addition for 6 hrs by ELISA method. It is filed as functional, cell-based. The settings on record: dose 1.0 µg/ml, time 30.0 hrs. On the technique in general: An ELISA detects its analyte on a solid surface through an enzyme-linked reagent.

In series [2] the test system is RAW264.7. The experiment in a line: Antiinflammatory activity in LPS-induced mouse RAW264.7 cells assessed as reduction in IL-1beta activity at 1 microg/ml preincubated with compound for 24 hrs followed by LPS addition for 6 hrs by ELISA method. Type of series: functional, cell-based. The settings on record: dose 1.0 µg/ml, time 30.0 hrs.
In series [3] the test system is RAW264.7. Description: Antiinflammatory activity in LPS-induced mouse RAW264.7 cells assessed as effect on NO level at 1 microg/ml preincubated with compound for 24 hrs followed by LPS addition for 6 hrs by DAF-FM diacetate probe based analysis. The settings on record: dose 1.0 µg/ml, time 30.0 hrs. Type of series: functional, cell-based.
Series [4] deals with RAW264.7. The experiment in a line: Antiinflammatory activity in LPS-induced mouse RAW264.7 cells assessed as effect on IL-1beta level at 1 microg/ml preincubated with compound for 24 hrs followed by LPS addition for 6 hrs by ELISA method. It is filed as functional, cell-based. The settings on record: dose 1.0 µg/ml, time 30.0 hrs.
Series [5] in a line: Cytotoxicity against mouse RAW264.7 cells assessed as cell viability at 1 microg/ml measured after 24 hrs by CCK-8 assay. It is filed as toxicity, cell-based. The settings on record: at 1 µg/mL, read-out: Activity. In general terms: Formazan colour is commonly taken as a measure of viable cells.
The test system of series [6] is RAW264.7. Description: Antiinflammatory activity in LPS-induced mouse RAW264.7 cells assessed as inhibition of TNF-alpha expression at 1 microg/ml preincubated with compound for 24 hrs followed by LPS addition for 6 hrs by ELISA method. Type of series: functional, cell-based. The settings on record: dose 1.0 µg/ml, time 30.0 hrs.
For series [7], the system named is Mus musculus. The experiment in a line: Anti-inflammatory activity against collagenase-induced osteoarthritis C57BL/6J mouse model assessed as reduction in mankin score in articular cartilage at 1 mg/kg, ip measured on day 14. It is filed as functional, organism-based. The settings on record: time 14.0 day.
For series [8], the system named is RAW264.7. The experiment in a line: Antiinflammatory activity in LPS-induced mouse RAW264.7 cells assessed as inhibition of IL-1beta expression at 1 microg/ml preincubated with compound for 24 hrs followed by LPS addition for 6 hrs by ELISA method. Type of series: functional, cell-based. The settings on record: dose 1.0 µg/ml, time 30.0 hrs.
For series [9], the system named is Mus musculus. The experiment in a line: Anti-inflammatory activity against collagenase-induced osteoarthritis C57BL/6J mouse model assessed as improvement in cartilage thickness at 1 mg/kg, ip measured on day 14 by H and E staining based analysis. Type of series: functional, organism-based. The settings on record: time 14.0 day.
For series [10], the system named is RAW264.7. The experiment in a line: Antiinflammatory activity in LPS-induced mouse RAW264.7 cells assessed as inhibition of NO generation at 1 microg/ml preincubated with compound for 24 hrs followed by LPS addition for 6 hrs by DAF-FM diacetate probe based analysis. The settings on record: dose 1.0 µg/ml. Type of series: functional, cell-based.
The nature of series [11]: Stability in human serum measured upto 6 hrs by RP-HPLC analysis. Type of series: ADME, cell-free.

Consider `COCCOCCOCCC(=O)N[C@@H](CCSC)C(=O)N[C@@H](CCC(N)=O)C(=O)N[C@@H](CS)C(=O)N[C@@H](CC(N)=O)C(=O)N[C@@H](CO)C(N)=O` ({Propanoyl(3-(MeO(CH2CH2O)2))}-MQCNS-NH2), for which the outcome with RAW264.7 [1], in the series on RAW264.7 [2], in the series with RAW264.7 [3] and with RAW264.7 [4] was Active. Also, in series [5], the viability at 24 h, 1 microg/ml is around 80%.
For `CSCC[C@H](N)C(=O)N[C@@H](CCC(N)=O)C(=O)N[C@@H](CS)C(=O)N[C@@H](CC(N)=O)C(=O)N[C@@H](CO)C(N)=O`, the result in the series on RAW264.7 [6], in the series on Mus musculus [7], in the series with RAW264.7 [8], in the series on Mus musculus [9] and in the series with RAW264.7 [10] was Active. Besides, the viability at 24 h, 1 microg/ml in series [5] is 82.2%. In [11], the Stability entry was “Stable”.
